Columns and labels:
C6 cells [1] = assay: ROS measurement by DHR fluorescence (flow cytometry); format: cell-based, rat; settings: C6, 25 μg/ml, 24 h
Procedure: (§1) The cells grown in the 6-well plate were stained with 1 μM dihydrorhodamine 123 (DHR) 20 min before the treatment with the test compound. At the end of the cultivation period the cells were detached, washed and resuspended in PBS. Analysis of ROS release was performed with a FACSCalibur and analyzed using CellQuest Pro software (Kaludjerovic 2005).

C6 cells [2] = assay: Autophagy detection by acridin orange staining (flow cytometry); format: cell-based, rat; settings: C6, 25 μg/ml, 24 h
Procedure: (§2) As a marker of necrotic cell death, the release of intracellular enzyme LDH, which mediates the conversion 2,4-dinitrophenylhydrazine into visible hydrazone precipitate in the presence of pyruvate, was measured. The cells were seeded in flat-bottom 96-well plates as indicated above and the assay was performed after 24 h incubation, as previously described (Decker et al). The percentage of dead cells was determined using the following formula: [(E−C)/(T−C)]×100, wherein E is the experimental absorbance of treated cultures measured at 492 nm, C is the absorbance of supernatants of control untreated cells, and T is the absorbance corresponding to the maximal (100%) LDH release of Triton-lysed cells. Cell cycle analysis and apoptosis detection were carried out exactly as described in the literature (Mijatovic CMLS 2005). Acidic vesicular organelles, which characterise autophagy, are stained by vital dye acridin orange. The intensity of red fluorescence is proportional to the acidity and volume of the organelles, while the cytoplasm and nucleolus emits bright green and dim red (Kanzawa 2004). […] Green (510-530 nm) and red (>650 nm) fluorescence emission from 10^4 cells illuminated with blue (488 nm) excitation light was measured with a FACS Calibur and analyzed using CellQuest software.

L929 cells [3] = assay: CFSE staining, tumor cell proliferation rate (flow cytometry); format: cell-based, mouse; settings: L929, GIT27-NO 25 μg/ml, after 48 h; control 7.26%
Procedure: (§3) The cells were seeded in flat-bottom 96-well plates (10^4 cells/well) in a final volume of 200 μl of culture medium, incubated overnight, then treated with different concentrations of the test compound. After 24 h incubation, cell viability was assessed using 3-4,5-dimethylthiazol-2-yl)-2,5-diphenyltetrazolium bromide (MTT) test, based on the mitochondrial-dependent reduction of MTT to formazan, or by crystal violet (CV) staining of adherent cells, as previously described (Mijatovic et al CMLS 2004). The results are presented as % of control values obtained in untreated cultures. The rate of cell proliferation was also determined using flow cytometric analysis of cells labeled with CFSE (Kang 2005). The cells were detached, added with 1.5 μM CFSE and allowed to stand for 15 min at 37° C., then washed twice and seeded in 6-well plates at 2×10^5. The cells were treated with the compound for 24 and 48 h, trypsinized and washed twice. Finally, the cells were resuspended in PBS and analyzed by flow cytometry. Green fluorescence emission from cells illuminated with excitation light of 488 nm was measured with a FACS Calibur (BD, Heidelberg, Germany) and analyzed using the CellQuest software.

B16 cells [4] = assay: as above; format: cell-based, mouse; settings: B16, GIT27-NO 25 μg/ml, after 48 h; control 2.00%
Procedure: as §3

L929 cells [5] = assay: ROS measurement by DHR fluorescence (flow cytometry); format: cell-based, mouse; settings: L929, 25 μg/ml, 24 h
Procedure: as §1

B16 cells [6] = assay: as above; format: cell-based, mouse; settings: B16, 25 μg/ml, 24 h
Procedure: as §1

B16 cells [7] = assay: Autophagy detection by acridin orange staining (flow cytometry); format: cell-based, mouse; settings: B16, 25 μg/ml, 24 h
Procedure: as §2

L929 cells [8] = assay: LDH release assay (cell death); format: cell-based, mouse; settings: L929, dose-dependent (24 h) and time-dependent (25 μg/ml), significant after 18 h
Procedure: as §2

L929 cells [9] = assay: Cell cycle analysis and apoptosis detection (PI staining, flow cytometry); format: cell-based, mouse; settings: L929, 25 μg/ml, 24 h
Procedure: as §2

B16 cells [10] = assay: as above; format: cell-based, mouse; settings: B16, 25 μg/ml, 24 h
Procedure: as §2

B16 cells [11] = assay: LDH release assay (cell death); format: cell-based, mouse; settings: B16, dose-dependent (24 h) and time-dependent (25 μg/ml), significant after 18 h
Procedure: As a marker of necrotic cell death, the release of intracellular enzyme LDH, which mediates the conversion 2,4-dinitrophenylhydrazine into visible hydrazone precipitate in the presence of pyruvate, was measured. […] The percentage of dead cells was determined using the following formula: [(E−C)/(T−C)]×100, wherein E is the experimental absorbance of treated cultures measured at 492 nm, C is the absorbance of supernatants of control untreated cells, and T is the absorbance corresponding to the maximal (100%) LDH release of Triton-lysed cells. Cell cycle analysis and apoptosis detection were carried out exactly as described in the literature (Mijatovic CMLS 2005). Acidic vesicular organelles, which characterise autophagy, are stained by vital dye acridin orange. The intensity of red fluorescence is proportional to the acidity and volume of the organelles, while the cytoplasm and nucleolus emits bright green and dim red (Kanzawa 2004). For the detection of autophagy the cells were cultivated in 6-well plates as previously described, detached and stained with 1 μg/ml acridin orange for 15 min at RT. At the end of the incubation period the cells were washed and finally resuspended in PBS. Green (510-530 nm) and red (>650 nm) fluorescence emission from 10^4 cells illuminated with blue (488 nm) excitation light was measured with a FACS Calibur and analyzed using CellQuest software.

C6 cells [12] = assay: LDH release assay (cell death); format: cell-based, rat; settings: C6, dose-dependent (24 h) and time-dependent (25 μg/ml), significant after 18 h
Procedure: as §2

B16 melanoma = B16 melanoma in C57BL/6 mice, treatment with GIT27-NO; format: in vivo
Procedure: Primary tumors were induced by subcutaneous (s.c) injection of 2×10^5 B16 melanoma cells in the dorsal right lumbosacral region of syngeneic C57BL/6 mice. […] GIT27-NO was prepared immediately before treatment and was applied i.p. at a dose of 0.5 mg/mouse for 14 consecutive days. The animals were observed until day 30, then sacrificed and tumor growth was determined by three-dimensional measurements of individual tumors from each mouse. Tumor volume was calculated using the following formula: [0.52×a×b^2], where a is the longest and b is the shortest diameter (Smagur et al).

C6 cells [13] = assay: CFSE staining, tumor cell proliferation rate (flow cytometry); format: cell-based, rat; settings: C6, GIT27-NO 25 μg/ml, after 48 h; control 8.37%
Procedure: as §3

C6 cells [14] = assay: Cell cycle analysis and apoptosis detection (PI staining, flow cytometry); format: cell-based, rat; settings: C6, 25 μg/ml, 24 h
Procedure: as §2

In the case of `N#Cc1c(COC(=O)CC2CC(c3ccccc3)=NO2)no[n+]1[O-]` (racemic) [GIT27-NO, (S,R)-3-phenyl-4,5 dihydro-5-isoxazole acetic acid-nitric oxide], the “intracellular production of ROS (DHR fluorescence)” value (from here on “intracellular production of ROS”) (C6 cells [1]) is reported as “markedly increased”, the “acidic autophagic vesicles (red fluorescence of acridin orange)” value (C6 cells [2]) is reported as “significantly increased the intensity of bright red fluorescence” and the “CFSE R1 = parent population” value (L929 cells [3]) is reported as 13.23%. For the same molecule, the “CFSE R1 = parent population” value (B16 cells [4]) was 6.90%, the “intracellular production of ROS” value (L929 cells [5]) was “markedly increased” and the “intracellular production of ROS” value (B16 cells [6]) was “markedly increased”. The “acidic autophagic vesicles (red fluorescence of acridin orange)” value (B16 cells [7]) was “significantly increased the intensity of bright red fluorescence”, the LDH release (L929 cells [8]) was “induced LDH release” and the “proportion of hypodiploid cells (subG compartment)” value (L929 cells [9]) was “significantly increased proportion of hypodiploid cells”. The “percentage of cells in subG compartment (hypodiploid cells)” value (B16 cells [10]) was less than 10%, the LDH release (B16 cells [11]) was “induced LDH release” and the LDH release (C6 cells [12]) was “induced LDH release”. For the same molecule, the “tumor growth compared to untreated control animals” value (B16 melanoma; B16 melanoma, 0.5 mg/mouse/day from day 10) was “significant reduction of tumor growth”, the “survival during follow-up period” value (B16 melanoma; B16 melanoma, 30 days follow-up, 2 animals died in control group) was “survived 30 days” and the Mean tumor volume (B16 melanoma; s.c. B16 melanoma, i.p. 0.5 mg/mouse/day from day 10, measured 30 days after implantation, control 2.97 ± 6.4, p < 0.05) was 0.82 ± 1.2. For the same molecule, the “CFSE R1 = parent population” value (C6 cells [13]) was 42.53%, the cell cycle effect (C6 cells [14]) was “cell cycle arrest in G0/G1 phase” and the “percentage of cells in subG compartment (hypodiploid cells)” value (C6 cells [14]) was less than 10%.

Source: patent US8207206B2, “(S,R)-3-phenyl-4,5 dihydro-5-isoxazole acetic acid-nitric oxide and use thereof as anti-cancer and antiviral agent” (OncoNOx APS, priority 2007, dated 2012)
